Laboratory results published in patent publication EP1266900A1, “Carbamates of rapamycin” (Wyeth, priority 1992, dated 1994).
Several values for one entry are separate records, joined by “and”; a condition that tells them apart may be missing. Equal values may be shown once. Where a name gives a salt, the structure may show the parent alone. Read-outs that look alike come from different tables or passages of the source.

Key:
[1] = tested on: cells from the thymus of normal BALB/c mice; test: comitogen-induced thymocyte proliferation procedure (LAF); type: cell-based; details: for IC50: thymocytes cultured for 72 hours with PHA and IL-1, tritiated thymidine incorporation, read-out: LAF IC50; for LAF (ratio): ratio compared with rapamycin, greater than 1 = inhibited thymocyte proliferation to a greater extent than rapamycin
Procedure: (§1) Immunosuppressive activity for representative compounds of this invention was evaluated in an in vitro standard pharmacological test procedure to measure lymphocyte proliferation (LAF) and in an in vivo standard pharmacological test procedure which evaluated the survival time of a pinch skin graft.
The comitogen-induced thymocyte proliferation procedure (LAF) was used as an in vitro measure of the immunosuppressive effects of representative compounds. Briefly, cells from the thymus of normal BALB/c mice are cultured for 72 hours with PHA and IL-1 and pulsed with tritiated thymidine during the last six hours. Cells are cultured with and without various concentrations of rapamycin, cyclosporin A, or test compound. Cells are harvested and incorporated radioactivity is determined. Inhibition of lymphoproliferation is assessed as percent change in counts per minute from non-drug treated controls. For each compound evaluated, rapamycin was also evaluated for the purpose of comparison. An IC50 was obtained for each test compound as well as for rapamycin. […] A positive ratio indicates immunosuppressive activity. […] Calculation of the ratio is shown below. (()^3 H-control thymus cells -)/(()^3 H-control thymus cells -)(()^3 H-rapamycin-treated thymus cells)/(()^3 H-test compound-treated cells) [formula]

[2] = tested on: pinch skin graft; test: pinch skin graft survival time, in vivo; design: species or system male C3H(H-2K) recipients; details: dose of 4 mg/kg, intraperitoneally or orally, untreated grafts usually rejected within 6-7 days
Procedure: as §1
Representative compounds of this invention were also evaluated in an in vivo test procedure designed to determine the survival time of pinch skin graft from male BAB/c donors transplanted to male C3H(H-2K) recipients. The method is adapted from Billingham R.E. and Medawar P.B., J. Exp. Biol. 28:385-402, (1951). Briefly, a pinch skin graft from the donor was grafted on the dorsum of the recipient as a allograft, and an isograft was used as control in the same region. The recipients were treated with either varying concentrations of test compounds intraperitoneally or orally. Rapamycin was used as a test control. Untreated recipients serve as rejection control. The graft was monitored daily and observations were recorded until the graft became dry and formed a blackened scab. This was considered as the rejection day. The mean graft survival time (number of days ± S.D.) of the drug treatment group was compared with the control group. […] Results are expressed as the mean survival time in days. Untreated (control) pinch skin grafts are usually rejected within 6-7 days. The results shown in Table 1 are based on a dose of 4 mg/kg of test compound. A survival time of 12.0 ± 1.7 days was obtained for rapamycin at 4 mg/kg.

Structure (SMILES)	IC50 ([1]; Mus musculus, Thymocyte, 72 h) [nM]	LAF (ratio) [1]	further results
CO[C@H]1C[C@@H]2CC[C@@H](C)[C@@](O)(O2)C(=O)C(=O)N2CCCC[C@H]2C(=O)O[C@H]([C@H](C)C[C@@H]2CC[C@@H](OC(N)=O)[C@H](OC)C2)CC(=O)[C@H](C)/C=C(\C)[C@@H](O)[C@@H](OC)C(=O)[C@H](C)C[C@H](C)/C=C/C=C/C=C/1C [Example 1, Rapamycin 42-ester with carbamic acid]	1.7	1.29	Skin Graft (days ± SD), mean survival time [2]: 11.7 ± 0.5 days
CO[C@H]1C[C@@H]2CC[C@@H](C)[C@@](O)(O2)C(=O)C(=O)N2CCCC[C@H]2C(=O)O[C@H]([C@H](C)C[C@@H]2CC[C@@H](OC(=O)NCCO)[C@H](OC)C2)CC(=O)[C@H](C)/C=C(\C)[C@@H](O)[C@@H](OC)C(=O)[C@H](C)C[C@H](C)/C=C/C=C/C=C/1C [Example 2, Rapamycin 42-ester with 2-hydroxyethyl carbamic acid]		1.22 and 1.09	Skin Graft (days ± SD), mean survival time [2]: 10.3 ± 0.8 days
CO[C@H]1C[C@@H]2CC[C@@H](C)[C@@](O)(O2)C(=O)C(=O)N2CCCC[C@H]2C(=O)O[C@H]([C@H](C)C[C@@H]2CC[C@@H](OC(=O)NCCN(C)C)[C@H](OC)C2)CC(=O)[C@H](C)/C=C(\C)[C@@H](O)[C@@H](OC)C(=O)[C@H](C)C[C@H](C)/C=C/C=C/C=C/1C [Example 3, Rapamycin 42-ester with 2-(dimethylamino)ethyl carbamic acid]	6.5	0.34	
CO[C@H]1C[C@@H]2CC[C@@H](C)[C@@](O)(O2)C(=O)C(=O)N2CCCC[C@H]2C(=O)O[C@H]([C@H](C)C[C@@H]2CC[C@@H](OC(=O)NN)[C@H](OC)C2)CC(=O)[C@H](C)/C=C(\C)[C@@H](O)[C@@H](OC)C(=O)[C@H](C)C[C@H](C)/C=C/C=C/C=C/1C [Example 4, Rapamycin 42-ester with aminocarbamic acid]	10	0.45	Skin Graft (days ± SD), mean survival time [2]: 9.8 ± 0.8 days
CO[C@H]1C[C@@H]2CC[C@@H](C)[C@@](O)(O2)C(=O)C(=O)N2CCCC[C@H]2C(=O)O[C@H]([C@H](C)C[C@@H]2CC[C@@H](OC(=O)NO)[C@H](OC)C2)CC(=O)[C@H](C)/C=C(\C)[C@@H](O)[C@@H](OC)C(=O)[C@H](C)C[C@H](C)/C=C/C=C/C=C/1C [Example 5, Rapamycin 42-ester with hydroxycarbamic acid]	2.1	1.19	
CO[C@H]1C[C@@H]2CC[C@@H](C)[C@@](O)(O2)C(=O)C(=O)N2CCCC[C@H]2C(=O)O[C@H]([C@H](C)C[C@@H]2CC[C@@H](OC(=O)NCCc3ccccn3)[C@H](OC)C2)CC(=O)[C@H](C)/C=C(\C)[C@@H](O)[C@@H](OC)C(=O)[C@H](C)C[C@H](C)/C=C/C=C/C=C/1C [Example 6, Rapamycin 42-ester with 2-(pyridin-2-yl)-ethyl carbamic acid]		5.1	IC50 [1]: 0.8 nM; Skin Graft (days ± SD), mean survival time ([2]; 4 mg/kg): 11.40 ± 0.6 days
CO[C@H]1C[C@@H]2CC[C@@H](C)[C@@](O)(O2)C(=O)C(=O)N2CCCC[C@H]2C(=O)O[C@H]([C@H](C)C[C@@H]2CC[C@@H](OC(=O)NCCc3ccccn3)[C@H](OC)C2)CC(=O)[C@H](C)/C=C(\C)[C@@H](O)[C@@H](OC)C(=O)[C@H](C)C[C@H](C)/C=C/C=C/C=C/1C [Example 7, Rapamycin 42-ester with 2-(pyridin-2-yl)-ethyl carbamic acid hydrochloride salt]			LAF (ratio) ([1]; hydrochloride salt): 2.3; IC50 ([1]; hydrochloride salt): 1.2 nM; Skin Graft (days ± SD), mean survival time ([2]; hydrochloride salt, 4 mg/kg): 10.33 ± 0.5 days
CO[C@H]1C[C@@H]2CC[C@@H](C)[C@@](O)(O2)C(=O)C(=O)N2CCCC[C@H]2C(=O)O[C@H]([C@H](C)C[C@@H]2CC[C@@H](OC(=O)NCCc3ccccn3)[C@H](OC)C2)CC(=O)[C@H](C)/C=C(\C)[C@@H](O)[C@@H](OC)C(=O)[C@H](C)C[C@H](C)/C=C/C=C/C=C/1C [Example 8, Rapamycin 42-ester with 2-(pyridin-2-yl)ethylcarbamic acid methanesulfonate salt]			LAF (ratio) ([1]; methanesulfonate salt): 4.4; IC50 ([1]; methanesulfonate salt): 0.2 nM
CO[C@H]1C[C@@H]2CC[C@@H](C)[C@@](O)(O2)C(=O)C(=O)N2CCCC[C@H]2C(=O)O[C@H]([C@H](C)C[C@@H]2CC[C@@H](OC(=O)NCc3ccccn3)[C@H](OC)C2)CC(=O)[C@H](C)/C=C(\C)[C@@H](O)[C@@H](OC)C(=O)[C@H](C)C[C@H](C)/C=C/C=C/C=C/1C [Example 10, Rapamycin 42-ester with 2-pyridinylmethyl carbamic acid]	0.1	3.8	Skin Graft (days ± SD), mean survival time [2]: 10.17 ± 1.0 days
CO[C@H]1C[C@@H]2CC[C@@H](C)[C@@](O)(O2)C(=O)C(=O)N2CCCC[C@H]2C(=O)O[C@H]([C@H](C)C[C@@H]2CC[C@@H](OC(=O)NCc3cccnc3)[C@H](OC)C2)CC(=O)[C@H](C)/C=C(\C)[C@@H](O)[C@@H](OC)C(=O)[C@H](C)C[C@H](C)/C=C/C=C/C=C/1C [Example 12, Rapamycin 42-ester with 3-pyridinylmethyl carbamic acid]	1.1	3.8	Skin Graft (days ± SD), mean survival time ([2]; 4 mg/kg): 9.80 ± 1.1 days
CO[C@H]1C[C@@H]2CC[C@@H](C)[C@@](O)(O2)C(=O)C(=O)N2CCCC[C@H]2C(=O)O[C@H]([C@H](C)C[C@@H]2CC[C@@H](OC(=O)N3CCN(CCCO)CC3)[C@H](OC)C2)CC(=O)[C@H](C)/C=C(\C)[C@@H](O)[C@@H](OC)C(=O)[C@H](C)C[C@H](C)/C=C/C=C/C=C/1C [Example 23, Rapamycin 42-ester with 4-(3-hydroxypropyl)piperazine-1-carboxylic acid]	3.4	1.4	
CO[C@H]1C[C@@H]2CC[C@@H](C)[C@@](O)(O2)C(=O)C(=O)N2CCCC[C@H]2C(=O)O[C@H]([C@H](C)C[C@@H]2CC[C@@H](OC(=O)NCCCN(CCO)CCO)[C@H](OC)C2)CC(=O)[C@H](C)/C=C(\C)[C@@H](O)[C@@H](OC)C(=O)[C@H](C)C[C@H](C)/C=C/C=C/C=C/1C [Example 24, Rapamycin 42-ester with [3-[bis(2-hydroxyethyl)amino]propyl]carbamic acid]	40	0.1	
CO[C@H]1C[C@@H]2CC[C@@H](C)[C@@](O)(O2)C(=O)C(=O)N2CCCC[C@H]2C(=O)O[C@H]([C@H](C)C[C@@H]2CC[C@@H](OC(=O)N3CCOCC3)[C@H](OC)C2)CC(=O)[C@H](C)/C=C(\C)[C@@H](O)[C@@H](OC)C(=O)[C@H](C)C[C@H](C)/C=C/C=C/C=C/1C [Example 26, Rapamycin 42-ester with morpholine-4-carboxylic acid]	0.2	6.2	
CO[C@H]1C[C@@H]2CC[C@@H](C)[C@@](O)(O2)C(=O)C(=O)N2CCCC[C@H]2C(=O)O[C@H]([C@H](C)C[C@@H]2CC[C@@H](OC(=O)N3CCN(C)CC3)[C@H](OC)C2)CC(=O)[C@H](C)/C=C(\C)[C@@H](O)[C@@H](OC)C(=O)[C@H](C)C[C@H](C)/C=C/C=C/C=C/1C [Example 27, Rapamycin 42-ester with 4-methylpiperazine-1-carboxylic acid]	1.2	1.2	
CO[C@H]1C[C@@H]2CC[C@@H](C)[C@@](O)(O2)C(=O)C(=O)N2CCCC[C@H]2C(=O)O[C@H]([C@H](C)C[C@@H]2CC[C@@H](OC(=O)N3CCNCC3)[C@H](OC)C2)CC(=O)[C@H](C)/C=C(\C)[C@@H](O)[C@@H](OC)C(=O)[C@H](C)C[C@H](C)/C=C/C=C/C=C/1C [Example 28, Rapamycin 42-ester with piperazine-1-carboxylic acid]	4.2	1.1	
